Data reported in patent US7893090B2, “N-aroyl cyclic amine derivatives as orexin receptor antagonists” (SmithKline Beecham Limited, priority 2001, dated 2011).

Key:
[1] = central administration, freely-feeding rats, 4 hour time period; cited from earlier work
[2] = Rat sleep/EEG studies after central administration; type: in vivo; conditions: central administration at the onset of the normal sleep period; at the expense of paradoxical sleep and slow wave sleep 2
From the text: Therefore antagonists of its receptor may be useful in the treatment of sleep disorders including insomnia.

## orexin-A: ligand for the orexin-1 receptor, an agonist of the orexin receptors; 33-residue peptide, SEQ ID NO:1 (EPLPDCCRQKTCSCRLYELLHGAGNHAAGILTLNH; Homo sapien)
[1]
  increase in food intake over control rats receiving vehicle: approximately four-fold
[2]
  arousal in rat sleep/EEG: dose-related increase in arousal
